Values joined by “and” are separate entries in the source; they are usually repeats but may differ in a detail not shown here. Equal entries are not always repeated.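 Values below derive from 48-hour exposures of cells grown in 96-well plates, with endpoints linearly interpolated between the two concentrations bracketing the appropriate inhibition level. Abbreviation: GI50, concentration required for 50% inhibition of growth. TGI: concentration producing complete growth inhibition.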
Experiments:
Assay in all cases: growth of human tumour cells (NCI), 48 h
MDA-MB-435 = tested on: MDA-MB-435
IGROV1 ovarian = tested on: IGROV1 ovarian
A549 NSCLC = tested on: A549 NSCLC
CAKI-1 renal = tested on: CAKI-1 renal
NCI-H23 lung = tested on: NCI-H23 lung
LOX IMVI melanoma = tested on: LOX IMVI melanoma
HOP-62 NSCLC = tested on: HOP-62 NSCLC
U251 CNS = tested on: U251 CNS
HT29 colon = tested on: HT29 colon
SK-OV-3 ovarian = tested on: SK-OV-3 ovarian

| Structure (SMILES) | TGI (MDA-MB-435) | TGI (IGROV1 ovarian) | TGI (A549 NSCLC) | TGI (CAKI-1 renal) [µM] | TGI (NCI-H23 lung) | TGI (LOX IMVI melanoma) | TGI (HOP-62 NSCLC) | TGI (U251 CNS) | TGI (HT29 colon) | GI50 (MDA-MB-435) | GI50 (IGROV1 ovarian) | GI50 (A549 NSCLC) | GI50 (SK-OV-3 ovarian) | TGI (SK-OV-3 ovarian) | GI50 (CAKI-1 renal) | GI50 (NCI-H23 lung) | GI50 (LOX IMVI melanoma) | GI50 (HOP-62 NSCLC) | GI50 (U251 CNS) | GI50 (HT29 colon) |
| --- | --- | --- | --- | --- | --- | --- | --- | --- | --- | --- | --- | --- | --- | --- | --- | --- | --- | --- | --- | --- |
| O=C(O)c1c(O)c2cc(Br)ccc2oc1=O | > 100 µM | > 100 µM | > 100 µM | > 100 | > 100 µM | > 100 µM | > 100 µM | > 100 µM | > 100 µM | – | – | – | – | – | – | – | – | – | – | – |
| CC(CN=C(CC(=O)c1ccc(Br)cc1)c1ccccc1)N=C(CC(=O)c1ccc(Br)cc1)c1ccccc1 (centres undefined) | > 100 µM | > 100 µM | > 100 µM | > 100 | > 100 µM | > 100 µM | > 100 µM | > 100 µM | > 100 µM | 41.8 µM | 3.37 µM | 7.6 µM | 9.05 µM | > 100 µM | 67.1 µM | 8.9 µM | 66.1 µM | > 100 µM | > 100 µM | 7.7 µM |
| O=C1c2ccccc2C(=O)c2c(NCCCNCCO)ccc(NCCCNCCO)c21 | 25.7 µM | > 49 µM | 47.3 µM | 98.2 | 23.9 µM | 14.9 µM | 23.8 µM | 23.3 µM | 15.9 µM | – | – | – | – | 58.7 µM | – | – | – | – | – | – |
| COc1cc(C)c(C(=O)O[C@H]2[C@H](O[C@H]3[C@@H](O)COC(O[C@H]4C[C@H]5[C@@H]6CC=C7C[C@@H](O)CC[C@]7(C)[C@H]6CC[C@]5(C)[C@H]4[C@H](C)C(=O)CCC(C)C)[C@@H]3OC(C)=O)OC[C@@H](O)[C@@H]2O)c(C)c1 (some centres undefined) | 0.13 µM | 19.9 µM | 30.5 µM | 1.18 | 14.2 µM | 0.0183 µM | 3.65 µM | 12.8 µM | 15.7 µM | < 0.01 µM | 0.247 µM | < 0.01 µM | 0.141 µM | 2.73 µM | < 0.01 µM | 0.384 µM | < 0.01 µM | 0.0125 µM | < 0.01 µM | 0.157 µM |
| COc1ccc(-c2oc(=O)ccc2C#Cc2cc(OC)c(OC)c(OC)c2)cc1O | 81.7 µM | > 100 µM | > 100 µM | > 100 | 81.2 µM | > 100 µM | 87.4 µM | 50.6 µM | > 100 µM | 11.5 µM | 39.9 µM | 39.5 µM | 30.7 µM | > 100 µM | 32.8 µM | 22.3 µM | 24.2 µM | 18.5 µM | 13.5 µM | 37.9 µM |
| COC(=O)c1c[nH]c(=O)[nH]c1=O | > 100 µM | > 100 µM | > 100 µM | > 100 | > 100 µM | > 100 µM | – | – | – | – | – | – | – | – | – | – | – | – | – | – |
| C[C@]12O[C@H](C[C@]1(O)CO)n1c3ccccc3c3c4c(c5c6ccccc6n2c5c31)CNC4=O | 3.97 µM and 2.01 µM | 3.67 µM and 4.9 µM | > 6.09 µM and 3.5 µM | – | 2.32 µM and 2.63 µM | 1.11 µM and 1.29 µM | 1.25 µM and 1.07 µM | 3.58 µM and 2.95 µM | 3.35 µM and 1.38 µM | 0.044 µM and 0.0371 µM | 0.0514 µM and 0.111 µM | 0.176 µM and 0.191 µM | 0.0183 µM and 0.0214 µM | 0.146 µM and 0.521 µM | 0.00582 µM and < 0.0169 µM | 0.0843 µM and 0.189 µM | 0.0531 µM and 0.13 µM | 0.0499 µM and 0.0664 µM | 0.808 µM and 0.523 µM | 0.166 µM and 0.138 µM |
| S=c1nc(-c2nc(=S)[nH]c3c2CCCCCCCCCC3)c2c([nH]1)CCCCCCCCCC2 | > 100 µM | > 100 µM | > 100 µM | > 100 | > 100 µM | > 100 µM | > 100 µM | > 100 µM | > 100 µM | – | – | – | – | > 100 µM | – | – | – | – | – | – |
